Data reported in PubChem BioAssay (NCI).
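A five-concentration, 48-hour dose response in 96-well plates underlies each endpoint, interpolated linearly between surrounding concentrations. The concentration for full growth arrest is given as TGI.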

Assays:
Assay in all cases: NCI anticancer screen, dose series, 48 h
MCF7 breast = test system: MCF7 breast
HL-60(TB) leukemia = test system: HL-60(TB) leukemia
NCI-H226 lung = test system: NCI-H226 lung
HCT-116 colon = test system: HCT-116 colon
SK-OV-3 ovarian = test system: SK-OV-3 ovarian
A549 NSCLC = test system: A549 NSCLC
IGROV1 ovarian = test system: IGROV1 ovarian
M14 melanoma = test system: M14 melanoma
UACC-257 melanoma = test system: UACC-257 melanoma
MDA-N = test system: MDA-N
SF-295 CNS = test system: SF-295 CNS
RXF 393 renal = test system: RXF 393 renal
HS 578T breast = test system: HS 578T breast
ACHN renal = test system: ACHN renal
UO-31 renal = test system: UO-31 renal
786-0 renal = test system: 786-0 renal
K-562 leukemia = test system: K-562 leukemia
DU-145 prostate = test system: DU-145 prostate

SMILES | TGI (MCF7 breast) | TGI (HL-60(TB) leukemia) | TGI (NCI-H226 lung) | TGI (HCT-116 colon) | TGI (SK-OV-3 ovarian) | TGI (A549 NSCLC) | TGI (IGROV1 ovarian) | TGI (M14 melanoma) | TGI (UACC-257 melanoma) | TGI (MDA-N) | TGI (SF-295 CNS) | TGI (RXF 393 renal) | TGI (HS 578T breast) | TGI (ACHN renal) | TGI (UO-31 renal) | TGI (786-0 renal) | TGI (K-562 leukemia) | TGI (DU-145 prostate)
CCOC(=O)CC(=O)NC1CC2CCC1(C)C2(C)C (stereo not drawn) | > 100 µM | > 100 µM | > 100 µM | > 100 µM | > 100 µM | > 100 µM | > 100 µM | > 100 µM | > 100 µM | > 100 µM | > 100 µM | > 100 µM | > 100 µM | > 100 µM | > 100 µM | > 100 µM | > 100 µM | > 100 µM
CN(C)c1nc(N(C)C)nc(N(C)C)n1 | > 150 µM | > 148 µM | > 150 µM | > 150 µM | > 150 µM | > 150 µM | > 135 µM | > 150 µM | > 150 µM | > 150 µM | > 150 µM | > 150 µM | > 150 µM | > 150 µM | > 150 µM | > 150 µM | > 150 µM | > 150 µM
S=c1ssc2c3ssc(=S)c3n(Cc3ccccc3)c12 | > 100 µM | > 100 µM | > 100 µM | > 100 µM | > 100 µM | > 100 µM | > 100 µM | > 100 µM | > 100 µM | > 100 µM | > 100 µM | 34.3 µM | > 100 µM | > 100 µM | 67 µM | > 100 µM | > 100 µM | > 100 µM
CCOC(=O)/C(C#N)=C/c1ccc2c(-c3c(OCC)ccc4cc(/C=C(\C#N)C(=O)OCC)ccc34)c(OCC)ccc2c1 | > 100 µM | > 100 µM | > 100 µM | > 100 µM | > 100 µM | > 100 µM | > 100 µM | 35.7 µM | > 100 µM | > 100 µM | > 100 µM | > 100 µM | > 100 µM | > 100 µM | > 100 µM | > 100 µM | > 100 µM | > 100 µM
COc1ccc(OC)c(C2CCc3nc4nc(N)nc(N)c4cc3C2)c1 (stereo not drawn) | 3.68 µM | 7.86 µM | 30.7 µM | 3.46 µM | 15.3 µM | 31.4 µM | 26.7 µM | 3.44 µM | 6.1 µM | 5.04 µM | 26.5 µM | 7.45 µM | 16.1 µM | 29.5 µM | 15.8 µM | 6.91 µM | 6.35 µM | 17.8 µM
CCN(CC)c1ccc(/C=C(\C#N)c2nc(N)nc(N3N=C(C)CC3(C)C)n2)cc1 | > 100 µM | > 100 µM | 14.6 µM | 34.1 µM | 19.9 µM | 32.3 µM | 34.2 µM | > 45.5 µM | > 100 µM | > 100 µM | 49.7 µM | 23.7 µM | 11.4 µM | 27.9 µM | 55.4 µM | 26.8 µM | > 68.7 µM | 29.3 µM
CSC(SC)=C1CC(=O)Nc2ccccc2C1=O | > 100 µM | > 100 µM | > 100 µM | > 100 µM | > 100 µM | > 100 µM | > 100 µM | > 100 µM | > 100 µM | > 100 µM | > 100 µM | 52.8 µM | > 100 µM | > 100 µM | > 100 µM | > 100 µM | 95.8 µM | > 100 µM
CNc1ncnc(Sc2nc(N)nc3nc[nH]c23)c1[N+](=O)[O-] | > 41.5 µM | 6.7 µM | > 100 µM | 11.9 µM | > 100 µM | > 49.2 µM | 22.1 µM | 19.4 µM | 13 µM | 14.9 µM | > 100 µM | 8.06 µM | > 43.9 µM | 14.7 µM | 13.9 µM | 16.5 µM | 5.66 µM | > 100 µM
C=C(O)c1ccccc1C#Cc1ccccc1C(=O)OC | > 10 µM | > 10 µM | > 10 µM | > 10 µM | > 10 µM | > 10 µM | > 10 µM | > 10 µM | > 10 µM | > 10 µM | > 10 µM | > 10 µM | > 10 µM | > 10 µM | > 10 µM | > 10 µM | > 10 µM | > 10 µM
COc1cc(NS(C)(=O)=O)ccc1NCc1cnc2ccc3[nH]c(C)ccc3c12 | > 100 µM | 34.9 µM | > 100 µM | > 100 µM | > 100 µM | > 100 µM | > 100 µM | > 100 µM | > 100 µM | > 100 µM | > 100 µM | 39.5 µM | > 100 µM | > 100 µM | 60.6 µM | > 100 µM | 62.2 µM | 89.1 µM
CCOC(=O)c1cc2cc(N(C(C)=O)C(C)=O)ccc2s1 | > 100 µM | 39.2 µM | 47.8 µM | > 100 µM | > 100 µM | > 100 µM | > 100 µM | > 100 µM | > 100 µM | > 100 µM | > 100 µM | 42.7 µM | 37.6 µM | 62.3 µM | > 100 µM | > 100 µM | 87 µM | > 100 µM
CCN1CC2=C(N=c3s/c(=C\c4ccc(Cl)cc4)c(=O)n3C2c2ccc(Cl)cc2)/C(=C/c2ccc(Cl)cc2)C1 (stereo not drawn) | > 100 µM | > 100 µM | > 100 µM | > 100 µM | > 100 µM | > 100 µM | > 100 µM | > 100 µM | > 100 µM | > 100 µM | > 100 µM | 15.4 µM | > 100 µM | > 100 µM | > 100 µM | 55.2 µM | > 100 µM | > 100 µM
Clc1ccc(N=C/C=C/Nc2ccc(Cl)cn2)nc1 | 31.6 µM | 3.91 µM | 31.2 µM | 25 µM | 36.6 µM | 29.1 µM | 28.9 µM | 30.2 µM | 32.3 µM | 28.4 µM | 30.6 µM | 34.9 µM | 23.3 µM | 25.1 µM | 29.2 µM | 18.3 µM | 23.2 µM | 31.6 µM
CCN(CC)C(=S)SS(=O)(=O)c1ccccc1C(=O)O | > 100 µM | > 42 µM | > 100 µM | > 100 µM | > 100 µM | > 100 µM | > 100 µM | > 100 µM | > 100 µM | > 100 µM | > 100 µM | > 100 µM | > 100 µM | > 100 µM | > 100 µM | > 100 µM | > 100 µM | > 100 µM
Cc1ccc(S(=O)ON2CCC(C(=O)O)(c3ccccc3)CC2)cc1 (stereo not drawn) | > 100 µM | > 100 µM | > 100 µM | > 100 µM | > 100 µM | > 100 µM | > 100 µM | > 100 µM | > 100 µM | > 100 µM | > 100 µM | > 100 µM | > 100 µM | > 100 µM | > 100 µM | > 32.2 µM | > 100 µM | > 100 µM
O=c1c2ccccc2nc2n1NC(c1c(Cl)cccc1Cl)N2c1cccc(Cl)c1 (stereo not drawn) | 5.2 µM | > 100 µM | 6.36 µM | 11.6 µM | 6.81 µM | 22.2 µM | 22.4 µM | 66.6 µM | > 100 µM | > 100 µM | > 100 µM | 18.5 µM | > 100 µM | 12.5 µM | 7.39 µM | 4.24 µM | > 100 µM | > 100 µM
